Assays:
[1] = Cytotoxicity against human MT4 cells expressing CD4 and CXCR4 assessed as cell viability; details: MT4 cells expressing CD4 and CXCR4
[2] = target: C-X-C chemokine receptor type 4 (Homo sapiens, UniProt P61073); assay: Inhibition of anti-CXCR4 12G5 monoclonal antibody to CXCR4 in human SUP-T1 cells pretreated for 30 mins by flow cytometry; format: cell-based
[3] = test system: Human immunodeficiency virus 1; assay: Antiviral activity against HIV1 3B infected in human MT-4 cells assessed as inhibition of virus-induced cytopathicity; details: Human immunodeficiency virus 1, 3B
[4] = test system: Human immunodeficiency virus 1; assay: Antiviral activity against HIV1 NL4.3 infected in human MT4 cells expressing CD4 and CXCR4 assessed as inhibition of virus-induced cytopathicity; format: functional, organism-based; details: Human immunodeficiency virus 1, NL4.3, MT4
[5] = test system: Human immunodeficiency virus 1; assay: Ratio of IC50 for HIV1 NL4.3 infected in human PBMC to IC50 for HIV1 NL4.3 infected in human MT4 cells; format: functional
[6] = test system: Human immunodeficiency virus 1; assay: Ratio of IC90 for HIV1 NL4.3 infected in human PBMC to IC90 for HIV1 NL4.3 infected in human MT4 cells; format: functional
[7] = test system: Human immunodeficiency virus 1; assay: Antiviral activity against HIV1 NL4.3 infected in human PBMC assessed as inhibition of virus-induced cytopathicity; format: functional, organism-based; details: Human immunodeficiency virus 1, NL4.3
[8] = test system: Human immunodeficiency virus 1; assay: Antiviral activity against HIV1 NL4.3 infected in human MT4 cells assessed as inhibition of virus-induced cytopathicity in presence of 10% human serum; format: functional, organism-based; details: Human immunodeficiency virus 1, NL4.3, MT4
[9] = target: T1, C-C chemokine receptor type 1 (Homo sapiens, UniProt P32246); assay: Displacement of radiolabeled MIP1alpha from CCR1 receptor
T1 sequence (P32246 whole entry): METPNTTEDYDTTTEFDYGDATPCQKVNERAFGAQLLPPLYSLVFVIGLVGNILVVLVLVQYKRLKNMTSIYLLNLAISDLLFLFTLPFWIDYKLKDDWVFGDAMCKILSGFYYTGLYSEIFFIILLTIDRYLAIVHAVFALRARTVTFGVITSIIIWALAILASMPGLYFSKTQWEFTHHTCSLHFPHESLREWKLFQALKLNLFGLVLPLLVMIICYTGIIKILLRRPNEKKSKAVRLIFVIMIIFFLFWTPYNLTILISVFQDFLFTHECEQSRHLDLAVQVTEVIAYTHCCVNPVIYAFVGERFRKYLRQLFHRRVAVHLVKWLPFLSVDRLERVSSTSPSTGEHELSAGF

Canis familiaris [10] = assay: Half life in dog at 5 mg/kg, iv; format: ADME, organism-based, Canis lupus familiaris; set-up: dose 5 mg/kg, route intravenous; details: in vivo
Canis familiaris [11] = assay: Volume of distribution in dog at 5 mg/kg, iv; format: ADME, organism-based, Canis lupus familiaris; set-up: dose 5 mg/kg, route intravenous; details: in vivo
[12] = target: T2, C-X-C chemokine receptor type 2 (Homo sapiens, UniProt P25025); assay: Displacement of radiolabeled IL8 from CXCR2 receptor
T2 sequence (P25025 whole entry): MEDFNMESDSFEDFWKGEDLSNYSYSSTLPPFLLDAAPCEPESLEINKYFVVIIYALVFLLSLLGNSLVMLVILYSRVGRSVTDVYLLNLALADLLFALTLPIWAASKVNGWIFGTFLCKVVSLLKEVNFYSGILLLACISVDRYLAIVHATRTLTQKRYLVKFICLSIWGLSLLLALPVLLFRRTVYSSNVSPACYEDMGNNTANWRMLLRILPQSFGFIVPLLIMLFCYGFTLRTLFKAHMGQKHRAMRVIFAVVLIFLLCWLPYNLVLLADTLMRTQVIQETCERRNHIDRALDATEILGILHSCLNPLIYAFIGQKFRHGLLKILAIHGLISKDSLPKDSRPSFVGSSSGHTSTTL

[13] = target: T3, C-C chemokine receptor type 4 (Homo sapiens, UniProt P51679); assay: Displacement of radiolabeled TARC from CCR4 receptor
T3 sequence (P51679 whole entry): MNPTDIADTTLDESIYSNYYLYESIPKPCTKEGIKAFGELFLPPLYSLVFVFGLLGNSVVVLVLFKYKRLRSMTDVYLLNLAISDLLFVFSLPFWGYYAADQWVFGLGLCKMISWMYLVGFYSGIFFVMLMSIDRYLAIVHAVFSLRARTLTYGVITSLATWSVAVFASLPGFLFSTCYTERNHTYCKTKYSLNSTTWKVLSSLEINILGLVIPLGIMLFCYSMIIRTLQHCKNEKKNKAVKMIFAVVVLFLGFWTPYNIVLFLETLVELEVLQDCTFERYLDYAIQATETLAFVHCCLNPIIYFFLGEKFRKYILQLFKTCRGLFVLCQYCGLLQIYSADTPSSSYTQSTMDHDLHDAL

Rattus norvegicus [14] = assay: Half life in rat at 10 mg/kg, iv; format: ADME, organism-based; set-up: dose 10 mg/kg, route intravenous; details: in vivo
[15] = Cmax in rat; format: ADME, organism-based; details: in vivo
[16] = Cmax in dog; format: ADME, organism-based, Canis lupus familiaris; details: in vivo
[17] = target: C-C chemokine receptor type 2 (Homo sapiens, UniProt P41597); assay: Displacement of radiolabeled MCP1 from CCR2b receptor
Chain of C-C chemokine receptor type 2 (P41597 whole entry): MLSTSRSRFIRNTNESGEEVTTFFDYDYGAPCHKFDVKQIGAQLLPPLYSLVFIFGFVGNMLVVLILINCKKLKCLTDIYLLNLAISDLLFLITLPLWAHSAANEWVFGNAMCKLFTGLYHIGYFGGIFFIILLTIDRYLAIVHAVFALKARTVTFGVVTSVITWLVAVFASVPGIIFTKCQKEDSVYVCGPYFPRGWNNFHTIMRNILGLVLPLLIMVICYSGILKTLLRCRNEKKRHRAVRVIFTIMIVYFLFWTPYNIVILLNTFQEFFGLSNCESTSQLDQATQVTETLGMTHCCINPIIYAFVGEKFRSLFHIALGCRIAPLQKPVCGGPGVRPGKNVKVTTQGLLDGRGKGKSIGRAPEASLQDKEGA

[18] = target: T4, C-X-C chemokine receptor type 1 (Homo sapiens, UniProt P25024); assay: Displacement of radiolabeled IL8 from CXCR1 receptor
T4 sequence (P25024 whole entry): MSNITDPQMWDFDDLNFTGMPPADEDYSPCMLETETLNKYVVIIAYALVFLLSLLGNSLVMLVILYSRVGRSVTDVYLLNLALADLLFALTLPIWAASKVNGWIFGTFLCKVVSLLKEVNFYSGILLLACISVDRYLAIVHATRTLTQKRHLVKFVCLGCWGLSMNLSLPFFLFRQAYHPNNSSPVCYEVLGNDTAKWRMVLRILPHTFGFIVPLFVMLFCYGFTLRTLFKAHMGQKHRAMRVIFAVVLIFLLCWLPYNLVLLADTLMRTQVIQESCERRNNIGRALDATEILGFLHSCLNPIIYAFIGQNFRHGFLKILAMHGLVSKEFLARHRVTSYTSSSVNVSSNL

[19] = test system: Human immunodeficiency virus 1; assay: Antiviral activity against HIV1 3B infected in human MT4 cells assessed as inhibition of virus-induced cytopathicity in presence of 10% human serum; format: functional, organism-based; details: Human immunodeficiency virus 1, 3B
[20] = Oral bioavailability in dog at 25 mg/kg; format: ADME, organism-based, Canis lupus familiaris; details: in vivo
[21] = Oral bioavailability in rat at 40 mg/kg; format: ADME, organism-based; details: in vivo
[22] = target: C-C chemokine receptor type 5 (Homo sapiens, UniProt P51681); assay: Displacement of radiolabeled MIP1beta from CCR5 receptor
Chain of C-C chemokine receptor type 5 (P51681 whole entry): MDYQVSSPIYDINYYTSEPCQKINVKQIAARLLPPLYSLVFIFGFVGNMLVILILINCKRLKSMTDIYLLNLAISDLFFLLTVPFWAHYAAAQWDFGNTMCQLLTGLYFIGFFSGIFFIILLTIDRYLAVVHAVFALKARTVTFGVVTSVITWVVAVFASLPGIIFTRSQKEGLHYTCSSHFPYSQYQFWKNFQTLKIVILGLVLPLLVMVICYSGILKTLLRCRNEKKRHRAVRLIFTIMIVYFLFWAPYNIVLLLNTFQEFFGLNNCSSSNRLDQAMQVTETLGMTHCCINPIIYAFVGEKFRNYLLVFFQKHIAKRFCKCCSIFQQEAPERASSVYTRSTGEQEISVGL

Rattus norvegicus [23] = assay: Volume of distribution in rat at 10 mg/kg, iv; format: ADME, organism-based; set-up: dose 10 mg/kg, route intravenous; details: in vivo
[24] = Oral bioavailability in rat at 100 mg/kg; format: ADME, organism-based; details: in vivo
Rattus norvegicus [25] = assay: Half life in rat at 5 mg/kg, iv; format: ADME, organism-based; set-up: dose 5 mg/kg, route intravenous; details: in vivo
[26] = Oral bioavailability in dog at 6 mg/kg; format: ADME, organism-based, Canis lupus familiaris; details: in vivo
Rattus norvegicus [27] = assay: Volume of distribution in rat at 5 mg/kg, iv; format: ADME, organism-based; set-up: dose 5 mg/kg, route intravenous; details: in vivo

Chain of C-X-C chemokine receptor type 4 (P61073 whole entry): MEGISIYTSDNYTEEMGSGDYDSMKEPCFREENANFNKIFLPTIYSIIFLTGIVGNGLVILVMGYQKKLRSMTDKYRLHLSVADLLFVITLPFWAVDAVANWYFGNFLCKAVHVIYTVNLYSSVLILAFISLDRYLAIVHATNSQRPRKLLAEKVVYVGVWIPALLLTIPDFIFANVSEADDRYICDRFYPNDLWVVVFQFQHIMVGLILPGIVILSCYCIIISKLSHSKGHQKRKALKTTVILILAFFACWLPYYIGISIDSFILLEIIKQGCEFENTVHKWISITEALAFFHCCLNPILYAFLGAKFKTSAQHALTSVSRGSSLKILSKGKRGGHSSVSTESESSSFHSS

SMILES	IC50 [2]	IC50 [4]	IC50 [7]	IC50 [8]	IC50 [9]	IC50 [12]	IC50 [13]	Cmax [15]	Cmax [16]	IC50 [17]	IC50 [18]	IC90 [7]	IC50 [22]	also measured
c1ccc(CNCc2ccc(CN(Cc3nc4ccccc4[nH]3)C3CCCc4cccnc43)cc2)nc1 (stereo not drawn)	250 nM	60 nM	277 nM	–	–	–	–	–	–	–	–	–	–	CC50 [1]: 23000 nM; IC50 [3]: 60 nM; Ratio IC50 [5]: 5; Ratio [6]: 4
c1ccc(CNCc2ccc(CN(Cc3nc4ccccc4[nH]3)[C@H]3CCCc4cccnc43)cc2)nc1	120 nM	30 nM	–	69 nM	> 10000 nM	> 10000 nM	> 10000 nM	4500 ng/mL	800 ng/mL	> 10000 nM	> 10000 nM	559 nM	> 10000 nM	t1/2 (Canis familiaris [10]): 5.7 h; Vd (Canis familiaris [11]): 17.5 L/kg; IC90 [3]: 108 nM; t1/2 (Rattus norvegicus [14]): 2.9 h; IC50 [19]: 81 nM; bioavailability [20]: 55%; bioavailability [21]: 48%; Vd (Rattus norvegicus [23]): 5.5 L/kg
NCCCCN(Cc1nc2ccccc2[nH]1)[C@H]1CCCc2cccnc21 [MAVORIXAFOR]	–	2 nM	9 nM	16 nM	> 10000 nM	> 10000 nM	> 10000 nM	1200 ng/mL	1700 ng/mL	> 10000 nM	> 10000 nM	26 nM	> 10000 nM	bioavailability [24]: 22%; t1/2 (Rattus norvegicus [25]): 3.5 h; bioavailability [26]: 80%; Vd (Rattus norvegicus [27]): 14.3 L/kg

— ChEMBL document CHEMBL1156989, “Discovery of novel small molecule orally bioavailable C-X-C chemokine receptor 4 antagonists that are potent inhibitors of T-tropic (X4) HIV-1 replication” (J Med Chem, 2010)
